Assay [1] concerns the target T1, aromatase (Rattus norvegicus, UniProt P22443).
T1 sequence (P22443 1-508): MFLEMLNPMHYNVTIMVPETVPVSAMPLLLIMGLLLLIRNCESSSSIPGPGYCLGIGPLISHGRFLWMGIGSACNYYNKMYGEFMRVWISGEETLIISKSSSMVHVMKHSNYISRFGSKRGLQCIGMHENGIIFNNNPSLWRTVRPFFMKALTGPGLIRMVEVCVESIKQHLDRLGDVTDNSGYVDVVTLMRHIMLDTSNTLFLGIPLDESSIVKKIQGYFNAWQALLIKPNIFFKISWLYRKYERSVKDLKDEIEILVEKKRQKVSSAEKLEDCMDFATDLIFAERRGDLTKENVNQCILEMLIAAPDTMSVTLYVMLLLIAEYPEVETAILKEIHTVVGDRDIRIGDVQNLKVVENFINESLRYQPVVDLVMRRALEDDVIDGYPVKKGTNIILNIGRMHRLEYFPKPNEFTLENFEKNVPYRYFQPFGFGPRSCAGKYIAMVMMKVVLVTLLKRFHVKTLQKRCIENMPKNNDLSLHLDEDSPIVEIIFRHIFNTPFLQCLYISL
Description: biochemical.
Description: IC50 of a test compound in aromatase inhibition was obtained from inhibition of ^3 H2 O released from [1,2-^3 H]-androstenedione in the microsome of a rat ovary.

Assay [2] concerns dimethylbenzanthracene (DMBA)-induced tumor. Nature of the assay: Antitumor activity in rat, DMBA-induced breast carcinoma. It counts as in vivo. As to conditions: orally, daily dose of from 0.04 to 1.0 mg/kg for 2 weeks, rats bearing breast carcinoma. As to the method:
(c) Antitumor activity in rat:
The antitumor activity on breast carcinoma was measured in a dimethylbenzanthracene (DMBA)-induced tumor in a female Sprague-Dawlay rat.
This experimentation is commonly employed as a method for determining an antitumor activity in an animal model of breast carcinoma.

Assay [3] deals with T2, aromatase (Homo sapiens, UniProt P11511).
T2 construct: in the microsome of a human placenta; from tissue; host or cells: human placenta microsomes
T2 sequence (P11511 1-503): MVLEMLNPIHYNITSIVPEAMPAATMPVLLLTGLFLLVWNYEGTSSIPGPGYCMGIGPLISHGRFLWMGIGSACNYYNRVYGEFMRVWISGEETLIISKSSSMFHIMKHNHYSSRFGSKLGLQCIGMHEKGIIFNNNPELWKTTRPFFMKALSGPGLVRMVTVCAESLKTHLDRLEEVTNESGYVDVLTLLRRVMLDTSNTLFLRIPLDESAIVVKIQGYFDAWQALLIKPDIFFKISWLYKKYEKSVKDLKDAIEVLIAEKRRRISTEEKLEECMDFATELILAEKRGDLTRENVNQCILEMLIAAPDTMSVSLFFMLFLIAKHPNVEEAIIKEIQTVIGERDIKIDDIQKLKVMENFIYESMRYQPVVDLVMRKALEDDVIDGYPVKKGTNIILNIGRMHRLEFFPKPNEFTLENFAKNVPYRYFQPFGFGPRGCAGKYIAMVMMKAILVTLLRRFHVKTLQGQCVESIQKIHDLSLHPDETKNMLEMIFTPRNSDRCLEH
Description: Inhibiting activity on aromatase of human placenta origin (microsome, 3H2O release from [1,2-3H]androstenedione). The note with it: in vitro, read-out: IC50 for in vitro aromatase inhibition. It counts as biochemical. The source says: (a) Inhibiting activity on aromatase of human placenta origin:
Measured in accordance with the method described in Endocrine Research, Vol. 16, No. 2, p. 253 (1990).
The inhibiting activity of a test compound was obtained from inhibition of ^3 H2 O released from [1,2-^3 H]androstenedione in the microsome of a human placenta.
IC50 value for in vitro aromatase inhibition in the microsome of a human placenta was obtained according to the method (2)-(a).

Assay [4] concerns estradiol biosynthesis. Description: In vivo inhibiting activity on estrogen production in rat (PMSG-primed, ovarian estradiol by RIA). The note with it: po, per os, 3 hours after administration, read-out: inhibition on estradiol biosynthesis with respect to the control. The procedure:
(b) In vivo inhibiting activity on estrogen production in rat:
PMSG (pregnant mare serum gonadotropin) (100 IU/rat) was subcutaneously injected to an immature female Wister rat weighing 60 g. After 72 hours from the injection, a suspension of a test compound in 0.5 ml of 20% polyethylene glycol aqueous solution was given to the rat per os. A 20% polyethylene glycol aqueous solution was administered to a control group. After 3 hours from the administration of the drug or placebo, the rat was decapitated and bled out, and the ovary was removed. The estradiol concentration in the ovary was measured by RIA.

For the compound `N#Cc1ccc(N(Cc2cc(F)cc(F)c2)c2cncnc2)cc1` [Example 34, 5-[N-(4-Cyanophenyl)-N-(3,5-difluorobenzyl)amino]pyrimidine], the IC50 (usually the concentration that gives 50% inhibition) in assay [1] was 0.22 nM; in assay [3], 0.036 nM. Further, the “suppression or regression of tumors in the mammary gland” value in assay [2] is listed as “suppression or regression of tumors”. Further, the inhibition (usually the share of the control response that was lost under treatment) at 0.03 mg/kg in assay [4] amounted to 86%.
Regarding `Fc1ccc(N(Cc2ccccc2)Cc2cccnc2)c(F)c1` [Comparative Compound 2, reference compound], the EC50 (in general, the concentration needed to bring the measured effect to its halfway point) in assay [1] is less than 50 nM.
